Assay results published in the NIST ThermoML archive (doi:10.1016/j.jct.2016.05.015).

Experiment: xn = mol fraction of the nth substance listed
Settings: 100 kPa, Liquid; for viscosity: Capillary tube (Ostwald / Ubbelohde) method; for speed of sound: Frequency=2 MHz, Linear variable-path acoustic interferometer; for mass density: Vibrating tube method

Nc1cccc(Cl)c1 [3-chlorobenzenamine] + Brc1ccccc1
Settings	mass density [kg/m3]	speed of sound [m/s]	viscosity [mPa·s]
303.15 K, x1 = 0.0902	1457.14	1162.5	1.364
303.15 K, x1 = 0.1842	1431.71	1191.5	1.741
303.15 K, x1 = 0.2789	1406	1222.1	2.101
303.15 K, x1 = 0.3759	1379.47	1255.1	2.454
303.15 K, x1 = 0.4745	1352.34	1290.5	2.795
303.15 K, x1 = 0.5763	1324.09	1329.2	3.131
303.15 K, x1 = 0.6782	1295.62	1370.2	3.446
303.15 K, x1 = 0.7852	1265.62	1416	3.752
303.15 K, x1 = 0.8914	1235.79	1464.5	4.022
303.15 K, x1 = 1	1205.32	1517.5	4.255
308.15 K, x1 = 0.0902	1451.19	1148.3	1.307
308.15 K, x1 = 0.1842	1425.93	1177.1	1.65
308.15 K, x1 = 0.2789	1400.36	1207.4	1.976
308.15 K, x1 = 0.3759	1373.99	1240.2	2.291
308.15 K, x1 = 0.4745	1346.99	1275.4	2.593
308.15 K, x1 = 0.5763	1318.91	1313.8	2.888
308.15 K, x1 = 0.6782	1290.63	1354.7	3.166
308.15 K, x1 = 0.7852	1260.78	1400.3	3.427
308.15 K, x1 = 0.8914	1231.09	1448.6	3.657
308.15 K, x1 = 1	1200.75	1501.2	3.842
313.15 K, x1 = 0.0902	1444.19	1134.9	1.223
313.15 K, x1 = 0.1842	1419.21	1163	1.533
313.15 K, x1 = 0.2789	1393.88	1192.8	1.826
313.15 K, x1 = 0.3759	1367.75	1224.9	2.104
313.15 K, x1 = 0.4745	1340.99	1259.3	2.372
313.15 K, x1 = 0.5763	1313.18	1296.9	2.632
313.15 K, x1 = 0.6782	1285.16	1336.9	2.876
313.15 K, x1 = 0.7852	1255.6	1381.6	3.105
313.15 K, x1 = 0.8914	1226.16	1428.7	3.293
313.15 K, x1 = 1	1196.02	1480.3	3.43
318.15 K, x1 = 0.0902	1437.77	1124.6	1.155
318.15 K, x1 = 0.1842	1412.99	1152.3	1.437
318.15 K, x1 = 0.2789	1387.82	1181.7	1.692
318.15 K, x1 = 0.3759	1361.85	1213.3	1.934
318.15 K, x1 = 0.4745	1335.26	1247.3	2.165
318.15 K, x1 = 0.5763	1307.62	1284.5	2.388
318.15 K, x1 = 0.6782	1279.81	1324	2.595
318.15 K, x1 = 0.7852	1250.46	1368	2.786
318.15 K, x1 = 0.8914	1221.22	1414.5	2.934
318.15 K, x1 = 1	1191.25	1464.8	3.022

Nc1cccc(Cl)c1 [3-chlorobenzenamine] + Clc1ccccc1
Settings	mass density [kg/m3]	speed of sound [m/s]	viscosity [mPa·s]
303.15 K, x1 = 0.0895	1106.11	1265.6	1.126
303.15 K, x1 = 0.1802	1116.69	1284.1	1.516
303.15 K, x1 = 0.2935	1129.74	1308.9	1.975
303.15 K, x1 = 0.3821	1139.77	1329.6	2.317
303.15 K, x1 = 0.4956	1152.34	1358.1	2.738
303.15 K, x1 = 0.5823	1161.75	1381.5	3.046
303.15 K, x1 = 0.6923	1173.48	1413.3	3.417
303.15 K, x1 = 0.8012	1184.88	1447.5	3.756
303.15 K, x1 = 0.8856	1193.58	1476	3.991
303.15 K, x1 = 1	1205.32	1517.5	4.255
308.15 K, x1 = 0.0895	1100.43	1243.5	1.059
308.15 K, x1 = 0.1802	1111.15	1262.3	1.418
308.15 K, x1 = 0.2935	1124.32	1287.4	1.835
308.15 K, x1 = 0.3821	1134.43	1308.4	2.145
308.15 K, x1 = 0.4956	1147.15	1337.4	2.522
308.15 K, x1 = 0.5823	1156.68	1361.3	2.797
308.15 K, x1 = 0.6923	1168.55	1393.9	3.126
308.15 K, x1 = 0.8012	1180.09	1429	3.421
308.15 K, x1 = 0.8856	1188.91	1458.3	3.623
308.15 K, x1 = 1	1200.75	1501.2	3.842
313.15 K, x1 = 0.0895	1095.5	1223.6	0.9961
313.15 K, x1 = 0.1802	1106.27	1242.2	1.322
313.15 K, x1 = 0.2935	1119.45	1267.1	1.697
313.15 K, x1 = 0.3821	1129.56	1288	1.972
313.15 K, x1 = 0.4956	1142.29	1316.8	2.306
313.15 K, x1 = 0.5823	1151.83	1340.5	2.548
313.15 K, x1 = 0.6923	1163.77	1373.1	2.839
313.15 K, x1 = 0.8012	1175.35	1408.2	3.097
313.15 K, x1 = 0.8856	1184.21	1437.5	3.264
313.15 K, x1 = 1	1196.02	1480.3	3.43
318.15 K, x1 = 0.0895	1090.31	1198.7	0.9397
318.15 K, x1 = 0.1802	1101.12	1217.7	1.238
318.15 K, x1 = 0.2935	1114.34	1243.1	1.57
318.15 K, x1 = 0.3821	1124.49	1264.5	1.808
318.15 K, x1 = 0.4956	1137.26	1294.2	2.098
318.15 K, x1 = 0.5823	1146.85	1318.8	2.308
318.15 K, x1 = 0.6923	1158.87	1352.6	2.557
318.15 K, x1 = 0.8012	1170.53	1389.2	2.773
318.15 K, x1 = 0.8856	1179.42	1419.9	2.908
318.15 K, x1 = 1	1191.25	1464.8	3.022

Nc1cccc(Cl)c1 [3-chlorobenzenamine] + O=[N+]([O-])c1ccccc1
Settings	mass density [kg/m3]	speed of sound [m/s]	viscosity [mPa·s]
303.15 K, x1 = 0.0812	1194.97	1445	1.938
303.15 K, x1 = 0.1725	1196.57	1452.6	2.253
303.15 K, x1 = 0.2623	1198.01	1460	2.537
303.15 K, x1 = 0.3725	1199.59	1468.9	2.863
303.15 K, x1 = 0.4854	1201	1478	3.179
303.15 K, x1 = 0.5896	1202.12	1486.4	3.456
303.15 K, x1 = 0.6785	1202.96	1493.5	3.679
303.15 K, x1 = 0.7825	1203.81	1501.6	3.915
303.15 K, x1 = 0.8905	1204.59	1509.8	4.117
303.15 K, x1 = 1	1205.32	1517.5	4.255
308.15 K, x1 = 0.0812	1189.92	1427.2	1.787
308.15 K, x1 = 0.1725	1191.59	1435	2.079
308.15 K, x1 = 0.2623	1193.07	1442.5	2.34
308.15 K, x1 = 0.3725	1194.69	1451.6	2.637
308.15 K, x1 = 0.4854	1196.16	1460.9	2.922
308.15 K, x1 = 0.5896	1197.35	1469.4	3.168
308.15 K, x1 = 0.6785	1198.25	1476.7	3.362
308.15 K, x1 = 0.7825	1199.18	1485	3.565
308.15 K, x1 = 0.8905	1200.03	1493.4	3.734
308.15 K, x1 = 1	1200.75	1501.2	3.842
313.15 K, x1 = 0.0812	1185.37	1409.1	1.666
313.15 K, x1 = 0.1725	1187.04	1416.6	1.935
313.15 K, x1 = 0.2623	1188.49	1423.8	2.167
313.15 K, x1 = 0.3725	1190.08	1432.6	2.427
313.15 K, x1 = 0.4854	1191.52	1441.5	2.674
313.15 K, x1 = 0.5896	1192.7	1449.8	2.889
313.15 K, x1 = 0.6785	1193.61	1456.8	3.059
313.15 K, x1 = 0.7825	1194.55	1465	3.234
313.15 K, x1 = 0.8905	1195.37	1473	3.369
313.15 K, x1 = 1	1196.02	1480.3	3.43
318.15 K, x1 = 0.0812	1179.19	1392.1	1.542
318.15 K, x1 = 0.1725	1181	1399.7	1.787
318.15 K, x1 = 0.2623	1182.58	1407	1.992
318.15 K, x1 = 0.3725	1184.35	1415.8	2.218
318.15 K, x1 = 0.4854	1185.97	1424.9	2.43
318.15 K, x1 = 0.5896	1187.32	1433.4	2.615
318.15 K, x1 = 0.6785	1188.37	1440.7	2.755
318.15 K, x1 = 0.7825	1189.5	1449.1	2.902
318.15 K, x1 = 0.8905	1190.49	1457.3	3.004
318.15 K, x1 = 1	1191.25	1464.8	3.022
